# Measured values reported in patent US11279687B2, “Compounds and compositions for the inhibition of NAMPT” (Valo Health, Inc., priority 2010, dated 2022).
# Target: NAMPT (Homo sapiens (Human), UniProt P43490)
# Assay: NAMPT biochemical inhibition assay (NMN quantified by mass spectrometry)
# Details: NAMPT biochemical inhibition; read-out: Biochem IC50
# Chain of NAMPT (P43490 whole entry): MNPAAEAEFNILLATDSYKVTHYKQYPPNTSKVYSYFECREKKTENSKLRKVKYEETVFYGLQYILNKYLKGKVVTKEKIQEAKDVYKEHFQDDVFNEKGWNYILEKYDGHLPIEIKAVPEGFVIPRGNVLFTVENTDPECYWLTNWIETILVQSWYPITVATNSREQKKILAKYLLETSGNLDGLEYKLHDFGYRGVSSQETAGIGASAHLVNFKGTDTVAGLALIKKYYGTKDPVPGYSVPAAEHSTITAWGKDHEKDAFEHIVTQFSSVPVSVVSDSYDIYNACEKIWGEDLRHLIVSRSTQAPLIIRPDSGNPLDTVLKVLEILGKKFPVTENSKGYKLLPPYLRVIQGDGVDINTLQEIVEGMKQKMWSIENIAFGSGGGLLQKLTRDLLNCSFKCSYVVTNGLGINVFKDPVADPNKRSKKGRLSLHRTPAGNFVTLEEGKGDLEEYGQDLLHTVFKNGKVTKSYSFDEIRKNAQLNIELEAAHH
row,IC50,SMILES
1,0.006 µM,O=C(NCc1cccnc1)Nc1ccc(S(=O)(=O)Nc2cccc(C(F)(F)F)c2)cc1 [1-(pyridin-3-ylmethyl)-3-(4-{[3-(trifluoromethyl)phenyl]sulfamoyl}phenyl)urea]
2,0.005 µM,O=C(NCc1cccnc1)Nc1ccc(S(=O)(=O)N2CCN(c3ccccc3)CC2)cc1 [1-[4-(4-phenylpiperazine-1-sulfonyl)phenyl]-3-(pyridin-3-ylmethyl)urea]
3,0.003 µM,O=C(NCc1cccnc1)Nc1ccc(S(=O)(=O)N2CCC(c3ccccc3)CC2)cc1 [1-[4-(4-phenylpiperidine-1-sulfonyl)phenyl]-3-(pyridin-3-ylmethyl)urea]
4,0.003 µM,CN(Cc1ccc(F)cc1)S(=O)(=O)c1ccc(NC(=O)NCc2cccnc2)cc1 [3-(4-{[(4-fluorophenyl)methyl](methyl)sulfamoyl}phenyl)-1-(pyridin-3-ylmethyl)urea]
5,0.008 µM,O=C(NCc1cccnc1)Nc1ccc(S(=O)(=O)c2ccc(F)cc2Cl)cc1 [3-{4-[(2-chloro-4-fluorobenzene)sulfonyl]phenyl}-1-(pyridin-3-ylmethyl)urea]
6,0.008 µM,O=C(NCc1cccnc1)Nc1ccc(S(=O)(=O)Nc2ccccc2F)cc1 [3-{4-[(2-fluorophenyl)sulfamoyl]phenyl}-1-(pyridin-3-ylmethyl)urea]
7,0.003 µM,O=C(NCc1cccnc1)Nc1ccc(S(=O)(=O)Nc2cccc(Br)c2)cc1 [3-{4-[(3-bromophenyl)sulfamoyl]phenyl}-1-(pyridin-3-ylmethyl)urea]

# System: A2780 cells
# Assay: In-vitro cell proliferation assay (SRB), A2780 cells;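 note: viable cell number read as SRB absorbance, background from media-only wells subtracted, IC50 interpolated from percent inhibition at two bracketing compound concentrations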
# Format: cell-based
# Details: Homo sapiens, A2780, 72 h, A2780 cells, 72 hours, SRB; read-out: A2780 IC50
row,SMILES,IC50
1,O=C(NCc1cccnc1)Nc1ccc(S(=O)(=O)N2C3CCC2COC3)cc1 [1-(4-{3-oxa-8-azabicyclo[3.2.1]octane-8-sulfonyl}phenyl)-3-(pyridin-3-ylmethyl)urea],0.287 µM
2,O=C(NCc1cccnc1)Nc1cccc(S(=O)(=O)N2CCCCC2)c1 [1-[3-(piperidine-1-sulfonyl)phenyl]-3-(pyridin-3-ylmethyl)urea],> 30 µM
3,O=C(NCc1cc[nH]n1)Nc1ccc(S(=O)(=O)c2ccccc2)cc1 [1-[4-(benzenesulfonyl)phenyl]-3-(1H-pyrazol-3-ylmethyl)urea],> 20 µM
4,Nc1cccc(CNC(=O)Nc2ccc(S(=O)(=O)c3ccccc3)cc2)c1 [1-[(3-aminophenyl)methyl]-3-[4-(benzenesulfonyl)phenyl]urea],2.54 µM
5,O=C(NCc1ccc(F)cc1)Nc1ccc(S(=O)(=O)N2CCCCC2)cc1 [1-[(4-fluorophenyl)methyl]-3-[4-(piperidine-1-sulfonyl)phenyl]urea],25 µM
6,O=C(NCc1cccnc1)Nc1ccc(S(=O)(=O)N2CCC2)cc1 [3-[4-(azetidine-1-sulfonyl)phenyl]-1-(pyridin-3-ylmethyl)urea],1.62 µM
7,O=C(Nc1ccc(S(=O)(=O)c2ccccc2)cc1)Nc1cccnc1 [3-[4-(benzenesulfonyl)phenyl]-1-(pyridin-3-yl)urea],27.5 µM
8,CN(C)c1ccc(CNC(=O)Nc2ccc(S(=O)(=O)c3ccccc3)cc2)cn1 [3-[4-(benzenesulfonyl)phenyl]-1-{[6-(dimethylamino)pyridin-3-yl]methyl}urea],27.6 µM
9,O=C(NCc1ccccc1F)Nc1ccc(S(=O)(=O)N2CCCCC2)cc1 [3-[(2-fluorophenyl)methyl]-1-[4-(piperidine-1-sulfonyl)phenyl]urea],> 30 µM
10,O=C(NCc1cccc(F)c1)Nc1ccc(S(=O)(=O)N2CCCCC2)cc1 [3-[(3-fluorophenyl)methyl]-1-[4-(piperidine-1-sulfonyl)phenyl]urea],> 30 µM
11,O=C(NCc1ccccc1)Nc1ccc(S(=O)(=O)N2CCCCC2)cc1 [3-benzyl-1-[4-(piperidine-1-sulfonyl)phenyl]urea],> 30 µM
12,O=C(NCc1ccc(S(=O)(=O)N2CCCCC2)cc1)Nc1cccnc1 [3-{[4-(piperidine-1-sulfonyl)phenyl]methyl}-1-(pyridin-3-yl)urea],2.26 µM
13,"C[C@@H]1CN(S(=O)(=O)c2ccc(NC(=O)NCc3cccnc3)cc2)C[C@H](C)O1 [rel-3-{4-[(2R,6S)-2,6-dimethylmorpholine-4-sulfonyl]phenyl}-1-(pyridin-3-ylmethyl)urea]",0.0135 µM

# Second part, the compound after the results:
row,IC50,SMILES
1,0.735 µM,O=C(NCc1cccnc1)Nc1ccc(C(=O)c2ccccc2)cc1 [1-(4-benzoylphenyl)-3-(pyridin-3-ylmethyl)urea]
2,1.35 µM,O=C(NCc1cccnc1)Nc1ccc(S(=O)(=O)N2CCOCC2)cc1 [1-[4-(morpholine-4-sulfonyl)phenyl]-3-(pyridin-3-ylmethyl)urea]
3,0.167 µM,O=C(NCc1cccnc1)Nc1ccc(S(=O)(=O)N2CCCCC2)cc1 [1-[4-(piperidine-1-sulfonyl)phenyl]-3-(pyridin-3-ylmethyl)urea]
4,1.48 µM,NC(=O)C1CCN(S(=O)(=O)c2ccc(NC(=O)NCc3cccnc3)cc2)CC1 [1-[(4-{[(pyridin-3-ylmethyl)carbamoyl]amino}benzene)sulfonyl]piperidine-4-carboxamide]
5,0.054 µM,O=C(NCc1cccnc1)Nc1ccc(S(=O)(=O)c2ccc(-n3cccn3)c(F)c2)cc1 [3-(4-{[3-fluoro-4-(1H-pyrazol-1-yl)benzene]sulfonyl}phenyl)-1-(pyridin-3-ylmethyl)urea]
6,0.096 µM,"C[C@@H]1[C@@H](NS(=O)(=O)c2ccc(NC(=O)NCc3cccnc3)cc2)C[C@H]2C[C@@H]1C2(C)C [3-(pyridin-3-ylmethyl)-1-(4-{[(1S,2S,3S,5R)-2,6,6-trimethylbicyclo[3.1.1]heptan-3-yl]sulfamoyl}phenyl)urea]"
7,0.869 µM,O=C(NCc1cccnc1)Nc1ccc(S(=O)(=O)c2ccccn2)cc1 [3-(pyridin-3-ylmethyl)-1-[4-(pyridine-2-sulfonyl)phenyl]urea]
8,1.4 µM,O=C(NCc1cccnc1)Nc1ccc(S(=O)(=O)N2CCCC2)cc1 [3-(pyridin-3-ylmethyl)-1-[4-(pyrrolidine-1-sulfonyl)phenyl]urea]
9,0.247 µM,Cn1cc(S(=O)(=O)c2ccc(NC(=O)NCc3cccnc3)cc2)cn1 [3-[4-(1-methyl-1H-pyrazole-4-sulfonyl)phenyl]-1-(pyridin-3-ylmethyl)urea]
10,0.254 µM,CC1CCN(S(=O)(=O)c2ccc(NC(=O)NCc3cccnc3)cc2)CC1 [3-[4-(4-methylpiperidine-1-sulfonyl)phenyl]-1-(pyridin-3-ylmethyl)urea]
11,0.139 µM,O=C(NCc1cccnc1)Nc1ccc(S(=O)(=O)N2CCCCCC2)cc1 [3-[4-(azepane-1-sulfonyl)phenyl]-1-(pyridin-3-ylmethyl)urea]
12,0.661 µM,O=C(NCCc1cccnc1)Nc1ccc(S(=O)(=O)N2CCCCC2)cc1 [3-[4-(piperidine-1-sulfonyl)phenyl]-1-[2-(pyridin-3-yl)ethyl]urea]
13,0.752 µM,O=C(NCc1cncc(F)c1)Nc1ccc(S(=O)(=O)N2CCCCC2)cc1 [3-[(5-fluoropyridin-3-yl)methyl]-1-[4-(piperidine-1-sulfonyl)phenyl]urea]
14,0.105 µM,C[C@H]1CCCN(S(=O)(=O)c2ccc(NC(=O)NCc3cccnc3)cc2)C1 [3-{4-[(3S)-3-methylpiperidine-1-sulfonyl]phenyl}-1-(pyridin-3-ylmethyl)urea]
15,0.547 µM,O=C(NCc1ccc(S(=O)(=O)N2CCCCC2)cc1)NCc1cccnc1 [3-{[4-(piperidine-1-sulfonyl)phenyl]methyl}-1-(pyridin-3-ylmethyl)urea]

# Same assay, conditions: Homo sapiens, A2780, 72 h, read-out: A2780 IC50
row,SMILES,IC50
1,Nc1ccc(CNC(=O)Nc2ccc(S(=O)(=O)c3ccccc3)cc2)cn1 [1-[(6-aminopyridin-3-yl)methyl]-3-[4-(benzenesulfonyl)phenyl]urea],0.081 µM
